Test [1] deals with Serine/threonine-protein kinase PLK1 (Homo sapiens, UniProt P53350). Put plainly: Inhibition of full length human PLK1 at 20 uM using casein as substrate after 40 mins in presence of [gamma-33P]-ATP by radiometric assay relative to control.
Test [2] deals with T1, Eukaryotic elongation factor 2 kinase (Homo sapiens) (UniProt O00418).
T1 sequence (whole entry): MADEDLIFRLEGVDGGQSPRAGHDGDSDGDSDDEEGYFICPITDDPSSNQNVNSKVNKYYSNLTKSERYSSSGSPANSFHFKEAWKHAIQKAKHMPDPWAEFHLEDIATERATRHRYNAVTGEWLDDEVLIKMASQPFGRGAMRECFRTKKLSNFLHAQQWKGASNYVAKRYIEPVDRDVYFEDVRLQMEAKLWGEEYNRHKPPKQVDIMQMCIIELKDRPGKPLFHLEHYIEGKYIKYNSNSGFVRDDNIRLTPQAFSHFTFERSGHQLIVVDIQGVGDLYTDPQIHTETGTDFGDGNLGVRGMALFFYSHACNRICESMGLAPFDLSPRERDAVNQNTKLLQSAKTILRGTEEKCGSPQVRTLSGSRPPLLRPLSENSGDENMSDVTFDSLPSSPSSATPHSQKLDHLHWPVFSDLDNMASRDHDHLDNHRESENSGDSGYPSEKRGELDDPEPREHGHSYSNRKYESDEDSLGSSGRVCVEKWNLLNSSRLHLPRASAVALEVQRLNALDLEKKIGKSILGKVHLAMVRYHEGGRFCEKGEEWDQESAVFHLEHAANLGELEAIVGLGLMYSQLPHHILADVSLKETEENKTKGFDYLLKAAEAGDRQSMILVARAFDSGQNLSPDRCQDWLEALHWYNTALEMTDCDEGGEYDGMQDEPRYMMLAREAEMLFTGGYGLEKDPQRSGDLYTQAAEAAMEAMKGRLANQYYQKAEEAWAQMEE
Briefly: Inhibition of GST-tagged EEF2K (unknown origin) at 20 uM using biotinylated EEF2 peptide substrate by HTRF assay relative to control. A general note: In TR-FRET formats the signal depends on donor and acceptor labels being close together.

A further test concerns MCF7. Put plainly: Cytotoxicity against human MCF7 cells after 24 hrs by MTT assay. It is filed as functional, cell-based. As to conditions: MCF7, 24 h.
The test system of a further test is BT-483. Briefly: Cytotoxicity against human BT-483 cells after 24 hrs by MTT assay. It is filed as functional, cell-based. The settings on record: BT-483, 24 h.
The next test relates to ZR-75-1. Briefly: Cytotoxicity against human ZR-75-1 cells after 24 hrs by MTT assay. It is filed as functional, cell-based. In general terms: Tetrazolium assays rely on reduction of a dye to a coloured formazan, in cell work by metabolically active cells.
Another test deals with BT-474. Briefly: Cytotoxicity against human BT474 cells after 24 hrs by MTT assay. Type of test: functional, cell-based.
The next test has as its system SK-BR-3. Put plainly: Cytotoxicity against human SKBR3 cells after 24 hrs by MTT assay. Type of test: functional, cell-based.
The next test has as its system MDA-MB-231. Put plainly: Cytotoxicity against human MDA-MB-231 cells after 24 hrs by MTT assay. Type of test: functional, cell-based.
In the next test the test system is MDA-MB-468. Briefly: Cytotoxicity against human MDA-MB-468 cells after 24 hrs by MTT assay. Type of test: functional, cell-based.

Each structure is given as a SMILES string. The source made the active and inactive calls. The rule behind the calls is not given here.

Chain of Serine/threonine-protein kinase PLK1 (P53350 whole entry): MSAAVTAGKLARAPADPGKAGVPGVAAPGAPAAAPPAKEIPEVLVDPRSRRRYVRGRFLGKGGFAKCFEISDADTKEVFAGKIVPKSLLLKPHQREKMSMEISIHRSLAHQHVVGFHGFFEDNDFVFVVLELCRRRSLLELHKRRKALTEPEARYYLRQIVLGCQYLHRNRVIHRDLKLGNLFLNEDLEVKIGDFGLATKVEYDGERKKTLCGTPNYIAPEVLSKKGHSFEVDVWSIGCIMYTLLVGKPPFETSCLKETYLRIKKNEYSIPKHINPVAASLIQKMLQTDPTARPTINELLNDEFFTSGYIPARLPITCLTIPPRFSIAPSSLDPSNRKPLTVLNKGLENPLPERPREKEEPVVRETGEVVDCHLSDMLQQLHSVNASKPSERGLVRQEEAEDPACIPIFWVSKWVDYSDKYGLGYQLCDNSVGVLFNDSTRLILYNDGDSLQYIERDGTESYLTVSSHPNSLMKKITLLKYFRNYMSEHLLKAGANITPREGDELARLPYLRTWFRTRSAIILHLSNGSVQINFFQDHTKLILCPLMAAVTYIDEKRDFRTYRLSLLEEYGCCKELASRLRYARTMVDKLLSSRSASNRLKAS

Take `CCNc1cc(-c2ccc(NC(=O)Nc3ccc(C(F)(F)F)cc3)cc2F)ccn1`: the inhibition stood at 55.8% in [1] and 41.2% in test [2]. In addition, the IC50 in the test with MCF7 was determined as 8.02 µM; with BT-483, 26.8 µM.

As to `CCNc1cc(-c2ccc(NC(=O)Nc3cccc4ccccc34)cc2C)ccn1`, the inhibition in [1] is 35.3%. Further, the values for the IC50 in the test with MCF7 and in the test with BT-483 were 15.5 µM and above 30 µM, respectively.

`CCNc1cc(-c2ccc(NC(=O)Nc3c(C)cccc3C)cc2OC)ccn1`: the inhibition in test [1] amounted to 54.4%. Also, the IC50 in the test on MCF7 was 9.26 µM; in the test on BT-483, above 30 µM.

As to `CCNc1cc(-c2ccc(NC(=O)Nc3ccc(C(F)(F)F)cc3)cc2C(F)(F)F)ccn1`, the inhibition is 82.9% in test [1] and 76.3% in [2]. Further, the IC50 in the test on MCF7 is 2.39 µM; with BT-483, 16.4 µM.

In the case of `O=C(Nc1ccc(C(F)(F)F)cc1)Nc1ccc(-c2ccnc(NCC3CC3)c2)c(C(F)(F)F)c1`, the inhibition is 53.4% in [1] and 15.1% in test [2]. Moreover, the IC50 is 15.6 µM with MCF7 and above 30 µM with BT-483.

Regarding `CCNc1cc(-c2ccc(NC(=O)Nc3c(C)cccc3C)cc2C)ccn1`, the figures for the inhibition in test [1] and in test [2] were 42.1% and 8.7%, respectively. For the same compound, the IC50 was 7.92 µM in the test with MCF7 and above 30 µM in the test with BT-483.

Turning to `CCNc1cc(-c2ccc(NC(=O)Nc3ccc(C(F)(F)F)cc3)cc2OC)ccn1`, the inhibition was determined as 40.7% in [1] and 34.6% in test [2]. The IC50 with MCF7 stood at 19.5 µM; in the test on BT-483, 25.6 µM.

On to `CCCNc1cc(-c2ccc(NC(=O)Nc3ccc(C(F)(F)F)cc3)cc2C(F)(F)F)ccn1`, for which the inhibition in test [1] stood at 51.3%; in test [2], 33.3%. Moreover, the IC50 in the test on MCF7 is 7.68 µM; in the test with BT-483, 18.8 µM.

As for `CCNc1cc(-c2ccc(NC(=O)Nc3cccc(Cl)c3)cc2C)ccn1`, the values for the inhibition in [1] and in test [2] were 82.7% and 73.4%, respectively. In addition, the results for the IC50 with MCF7 and in the test with BT-483 were 4.18 µM and 16.6 µM, respectively.

As to `CCNc1cc(-c2ccc(NC(=O)Nc3ccc(OC)cc3)cc2OC)ccn1`, the inhibition in [1] was found to be 31.1%; in test [2], 9%. In addition, the IC50 with MCF7 is 17.5 µM; with BT-483, above 30 µM.

For `CCNc1cc(-c2ccc(NC(=O)Nc3cccc(Cl)c3)cc2OC)ccn1`, the figures for the inhibition in test [1] and in test [2] were 46.4% and 30.6%, respectively. Also, the IC50 amounted to 7.46 µM in the test with MCF7 and 25.3 µM in the test with BT-483.

With `CCNc1cc(-c2ccc(NC(=O)Nc3ccc(C)cc3)cc2C)ccn1`, the figures for the inhibition in [1] and in [2] were 47.5% and 35.4%, respectively. In addition, the IC50 in the test on MCF7 was found to be 9.21 µM; with BT-483, 22 µM.

Consider `CCNc1cc(-c2ccc(NC(=O)Nc3cc(C(F)(F)F)cc(C(F)(F)F)c3)cc2C(F)(F)F)ccn1`, for which the inhibition in [1] was determined as 66.1%; in [2], 37.2%. The figures for the IC50 in the test with MCF7 and in the test with BT-483 were 5.96 µM and above 30 µM, respectively.

With `CCNc1cc(-c2ccc(NC(=O)Nc3ccccc3Cl)cc2OC)ccn1`, the inhibition in test [1] turned out to be 53.6%; in test [2], 6.4%. For the same compound, the IC50 is 9.94 µM with MCF7 and above 30 µM with BT-483.

For the compound `CCNc1cc(-c2ccc(NC(=O)Nc3c(C)cccc3C)cc2C(F)(F)F)ccn1`, the inhibition in test [1] was found to be 59.2%; in test [2], 44%. Besides, the figures for the IC50 in the test with MCF7 and in the test on BT-483 were 6.95 µM and 22 µM, respectively.

For `CCNc1cc(-c2ccc(NC(=O)Nc3ccc(C(F)(F)F)cc3)cc2C)ccn1`, the inhibition stood at 54.8% in test [1] and 55.3% in [2]. The IC50 with MCF7 stood at 6.87 µM; in the test with BT-483, 19.7 µM.

Take `CCNc1cc(-c2ccc(NC(=O)Nc3ccccc3Cl)cc2C(F)(F)F)ccn1`: the inhibition in [1] was determined as 71.6%; in test [2] it was 53.6%. The figures for the IC50 in the test with MCF7 and in the test with BT-483 were 3.68 µM and 20.8 µM, respectively.

On to `CCNc1cc(-c2ccc(NC(=O)Nc3ccc(C)cc3)cc2C(F)(F)F)ccn1`, for which the inhibition came to 42.6% in [1] and 37.9% in test [2]. For the same compound, the IC50 in the test with MCF7 worked out at 9.47 µM; with BT-483, 27.1 µM.

In the case of `CCNc1cc(-c2ccc(NC(=O)Nc3ccc(OC)cc3)cc2F)ccn1`, the inhibition in test [1] worked out at 47.1%; in [2], 34.4%. In addition, the IC50 in the test with MCF7 came out at 14.1 µM; with BT-483, 19.6 µM.

Turning to `CCNc1cc(-c2ccc(NC(=O)Nc3ccc(OC)cc3)cc2C(F)(F)F)ccn1`, the inhibition worked out at 62.1% in test [1] and 51.3% in test [2]. The IC50 in the test with MCF7 worked out at 5.74 µM; in the test on BT-483, 17.6 µM.

For `CCNc1cc(-c2ccc(NC(=O)Nc3ccccc3Cl)cc2C)ccn1`, the inhibition turned out to be 49.2% in [1] and 21.7% in test [2]. Further, the IC50 in the test with MCF7 was 8.35 µM; in the test on BT-483 it was above 30 µM.

For the compound `CCNc1cc(-c2ccc(NC(=O)Nc3cccc(Cl)c3)cc2F)ccn1`, the inhibition came to 72.7% in test [1] and 52.5% in test [2]. Moreover, the IC50 with MCF7 turned out to be 6.94 µM; in the test with BT-483, 18.5 µM.

With `O=C(Nc1cccc(Cl)c1)Nc1ccc(-c2ccnc(NCC3CC3)c2)c(C(F)(F)F)c1`, the inhibition came out at 63.8% in [1] and 27.8% in test [2]. The IC50 with MCF7 is 17.4 µM; in the test with BT-483, above 30 µM.

Regarding `CCNc1cc(-c2ccc(NC(=O)Nc3ccc(OC)cc3)cc2C)ccn1`, the inhibition in [1] was 45.8%; in test [2], 33.4%. The IC50 came out at 9.95 µM in the test with MCF7 and 25.8 µM with BT-483.

Regarding `CCNc1cc(-c2ccc(NC(=O)Nc3cccc4ccccc34)cc2C(F)(F)F)ccn1`, the results for the inhibition in test [1] and in test [2] were 54.1% and -4.29%, respectively. In addition, the IC50 in the test on MCF7 is 16.3 µM; with BT-483 it was above 30 µM.

Consider `CC[C@@H]1C(=O)N(C)c2cnc(Nc3ccc(C(=O)NC4CCC(N5CCN(CC6CC6)CC5)CC4)cc3OC)nc2N1C(C)C` (some centres not stated), for which the result in the test on ZR-75-1, in the test on BT-474, in the test on SK-BR-3, with MDA-MB-231 and with MDA-MB-468 was Active.

As for `CCCNc1cc(-c2ccc(NC(=O)Nc3cccc(Cl)c3)cc2C(F)(F)F)ccn1`, the inhibition in test [1] came out at 63%; in [2], 38.2%. Moreover, the results for the IC50 with MCF7 and in the test on BT-483 were 8.23 µM and 18.5 µM, respectively.

One may read the inhibition as the relative decrease from the control value, in per cent. As a reminder, the IC50 is the concentration that inhibits the measured activity by half. The low end stands for higher potency, the high end for lower potency.
